# Earlier results in publication PMC10225205 (Cancer Medicine, 2023).
# Read-outs that look alike come from different tables or passages of the source.
# Details: cited from earlier work
structure (smiles),measurement,setting,value
COc1cc(OC)cc(N(CCNC(C)C)c2ccc3ncc(-c4cnn(C)c4)nc3c2)c1 [erdafitinib],Most common TEAE,in vivo,hyperphosphatemia
same,Most common TEAEs,"phase 1 multicenter study, advanced solid tumors","hyperphosphatemia, dry mouth, stomatitis, and asthenia"
C=CC(=O)N1CC[C@H](n2nc(C#Cc3cc(OC)cc(OC)c3)c3c(N)ncnc32)C1 [futibatinib],Most common TEAE,"phase 1, Japanese patients with advanced solid tumors",hyperphosphatemia
same,Most frequently reported TEAEs,"phase 1 study, advanced solid tumors","hyperphosphatemia, diarrhea, constipation, and nausea"
CCN1CCN(c2ccc(Nc3cc(N(C)C(=O)Nc4c(Cl)c(OC)cc(OC)c4Cl)ncn3)cc2)CC1 [infigratinib],Most commonly reported (>30%) TEAEs,global phase 1 study,"hyperphosphatemia, constipation, appetite decreased, stomatitis, diarrhea, nausea, and fatigue"
